Data: article PMC12321279, “Novel 4,5‐Dihydrothiazole‐Phenylpiperazine Derivatives: Synthesis, Docking Studies and Pharmacological Evaluation as Serotonergic Agents” (Chemmedchem, 2025)
Where two headings read alike, the source gives them in different places.

Key:
5‐HT1A receptor = target: T1, 5‐HT1A receptor (Rattus norvegicus, UniProt P19327); test: 5‐HT1A receptor activation in the [35S]GTP‐γ‐S assay (hippocampal membranes); format: biochemical; conditions: [35S]GTPγS; for Emax: read-out: Emax (%) ± SEM, 5‐HT1A receptor G‐protein stimulation; for agonist activity for the 5‐HT1A receptor (classification in words): efficacy compared with 8‐OH‐DPAT
T1 construct: 80 μg of hippocampal membrane suspension (the 5‐HT1A assay); from tissue; host or cells: rat (Sprague-Dawley) hippocampus membranes
T1 sequence (P19327 1-422): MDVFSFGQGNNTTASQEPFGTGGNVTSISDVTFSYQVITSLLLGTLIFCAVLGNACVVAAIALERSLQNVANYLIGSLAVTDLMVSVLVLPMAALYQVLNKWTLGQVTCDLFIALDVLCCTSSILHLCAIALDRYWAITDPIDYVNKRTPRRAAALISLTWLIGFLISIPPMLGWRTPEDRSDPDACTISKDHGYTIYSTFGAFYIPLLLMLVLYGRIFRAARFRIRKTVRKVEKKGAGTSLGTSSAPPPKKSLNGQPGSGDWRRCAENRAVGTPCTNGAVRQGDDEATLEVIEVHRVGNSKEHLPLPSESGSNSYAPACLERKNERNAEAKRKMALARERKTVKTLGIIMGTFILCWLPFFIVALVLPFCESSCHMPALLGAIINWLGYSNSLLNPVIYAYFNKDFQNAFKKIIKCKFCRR
Experimental: Seven compound concentrations equally spaced on a log scale (10–4 M to 10–10 M) were incubated in duplicate with hippocampal membrane preparations (5μg per well) in assay buffer (50 mM Tris‐HCl, pH = 7.4, 1 mM EGTA, 3 mM MgCl2, 100 mM NaCl, and 30 μM GDP) and 0.08 nM [^35S]GTP‐γ‐S (specific activity: 1250 Ci mmole^−1, Revvity). Nonspecific binding was determined with 10μM of unlabeled GTP‐γ‐S. The final DMSO concentration in the assay was 5%. The reaction mixture was incubated for 90 min. at 30 °C on an orbital shaker set at 250 rpm. Next, the reaction mixture was deposited under vacuum with the FilterMate Harvester (Revvity, USA) onto Unifilter GF/C Plates (Revvity, MA, USA) presoaked with wash buffer (50 mM Tris‐HCl, pH = 7.4). The wells were then rapidly washed with 2 mL of wash buffer. Filter plates were dried overnight at room temperature. Once completely dry, 35 μl of MicroScint PS (Revvity, MA, USA) scintillation fluid was added to each well. Radioactivity was counted in a MicroBeta2 LumiJet scintillation counter (Revvity, MA, USA). Data were analyzed with GraphPad Prism 5.0 software (GraphPad Software, San Diego California USA, www.graphpad.com). The curves were fitted with three‐parameter non‐linear regression model.

larval zebrafish = test: Basic locomotor activity of larval zebrafish; format: in vivo, zebrafish (Danio rerio); conditions: 5 dpf larvae, 20 h incubation at maximum‐tolerated concentration (Figure 12), 30 min tracking
Experimental: All experiments were conducted on zebrafish (Danio rerio) larvae up to 5 days post fertilization (dpf), therefore, in accordance with current European legislation, ethical permission to conduct assays was not required. However, housing and experimental procedures were performed in compliance with the National Institute of Health Guidelines for the Care and Use of Laboratory Animals and the European Union Directive of 22 September 2010 (2010/63/EU) on protecting animals used for scientific purposes. All efforts were taken to minimize larvae stress and suffering. Larvae were euthanized with an overdose of tricaine ([…]). The zebrafish facility of Experimental Medicine Centre (Medical University of Lublin, Poland) provided wild‐type zebrafish embryos of the AB strain. Embryos as well as larvae were maintained in Petri dishes filled with E3 embryo medium, i.e., fish water (1.5 mM HEPES, pH 7.6; 17.4 mM NaCl; 0.21 mM KCl; 0.12 mM MgSO4; and 0.18 mM Ca (NO3)2). These were maintained under standard, generally accepted housing conditions (temperature 28.5 ± 1 °C, light to dark cycle 14 h to 10 h). Plastic transfer Pasteur pipettes were used to replace medium each day. Before the respective behavioral tests were conducted, larvae at 4 dpf were incubated for 20 h in different arylpiperazine derivatives solutions of maximum‐tolerated concentrations (MCTs), determined during toxicological screening.^[ [30], [32] ^] The control group was exposed to equivalent concentration of DMSO solvent. All locomotor tracking tests were performed at the same period of the day. Basic locomotor activity was measured using an automated tracking device, Daniovision by Noldus, and the total distance traveled was quantified using EthoVision XT software of the same company (Wageningen, the Netherlands) over a 30 min long observation period. Larvae were placed in 48‐well plates, individually (single larva per well), using a plastic transfer pipette. The PTZ‐induced hyperlocomotion (acute seizure assay) was assessed in 5 dpf larval zebrafish (after 20 h incubation with tested derivatives at MCTs). After the incubation, larvae were exposed to an acute dose of PTZ (20 mM). Larval locomotor activity after exposure to PTZ was tracked (Daniovision by Noldus) over 30 mins, after 5‐mins of habituation. Additionally, larval locomotor activity was assessed in response to alternate lighting conditions (lights ON vs. lights OFF). Light intensity under illumination was 100%. Challenge to light/dark conditions lasted 10 min each, twice repeated.^[ [52] ^] Similarly, the data were recorded as the distance traveled (mm) by larvae when exposed to alternating lightning. All experiments were repeated three times, and data pooled. For statistical analysis and figure generation, GraphPad Prism 9.3.1 version (San Diego, CA, USA) was employed, and Grubbs test was applied to identify outliers. Shapiro‐Wilk test was then employed to assess whether data are normally distributed. Moreover, nonparametric ANOVA, Kruskal–Wallis, or Friedman (for repeated measures) test was used to analyze data, with statistical significance level set at p < 0.05. Data are presented as median or median + individual values.

[1] = rat hippocampal membranes, 95% CI in brackets, read-out: EC50 (95% CI, μM), 5‐HT1A receptor G‐protein stimulation
[2] = rat hippocampal membranes, read-out: pEC50, 5‐HT1A receptor G‐protein stimulation (converted)

Row | SMILES | Emax (%) ± SEM, 5‐HT1A receptor G‐protein stimulation (5‐HT1A receptor; rat hippocampal membranes) | EC50 (5‐HT1A receptor; [1]) | EC50 (5‐HT1A receptor; [2]) | basic locomotor activity (total distance traveled) (larval zebrafish) | Emax (5‐HT1A receptor; rat hippocampal membranes) | agonist activity for the 5‐HT1A receptor (classification in words) (5‐HT1A receptor)
1 | O=C(NCCCN1CCN(c2ccc(C3=NCCS3)cc2)CC1)C1CC2C=CC1C2 (stereo not drawn) [FG‐18, Endo‐ N‐(3‐(4‐(4‐(4,5‐dihydrothiazol‐2‐yl)phenyl)piperazin‐1‐yl)propyl) bicyclo[2.2.1]hept‐5‐ene‐2‐carboxamide] | 144 ± 8.2% | 8.8 µM | 8.91 µM | decreased |  | 
2 | O=C1C2C3C=CC(C3)C2C(=O)N1OCCCN1CCN(c2ccccc2C2=NCCS2)CC1 (stereo not drawn) [FG‐7, 2‐(3‐(4‐(2‐(4,5‐dihydrothiazol‐2‐yl) phenyl) piperazin‐1‐yl) propoxy)‐3a,4,7,7a‐tetrahydro‐1 H‐4,7‐methanoisoindole‐1,3(2 H)‐dione] |  | 3.01 µM |  | slightly decreased larval activity | 177 ± 3.3% | full agonists
3 | O=C(NCCCN1CCN(c2ccc(C3=NCCS3)cc2)CC1)c1ccncc1 [FG‐6, N‐(3‐(4‐(4‐(4,5‐dihydrothiazol‐2‐yl) phenyl) piperazin‐1‐yl) propyl) isonicotinamide] |  | 9.4 µM |  | slightly decreased larval activity | 184 ± 11% | full agonists
4 | O=C(NCCCN1CCN(c2cccc(C3=NCCS3)c2)CC1)c1ccncc1 [FG‐5, N‐(3‐(4‐(3‐(4,5‐dihydrothiazol‐2‐yl) phenyl) piperazin‐1‐yl) propyl) isonicotinamide] |  | 18.2 µM |  |  | 185 ± 17.6% | 
5 | O=C(NCCCN1CCN(c2cccc(C3=NCCS3)c2)CC1)c1ccccn1 [FG‐2, N‐(3‐(4‐(3‐(4,5‐dihydrothiazol‐2‐yl) phenyl) piperazin‐1‐yl) propyl) picolinamide] |  | 125 µM |  |  | 136 ± 10.2% | 
6 | O=C(NCCCN1CCN(c2ccccc2C2=NCCS2)CC1)c1ccncc1 [FG‐4, N‐(3‐(4‐(2‐(4,5‐dihydrothiazol‐2‐yl) phenyl) piperazin‐1‐yl) propyl) isonicotinamide] |  |  | 50.1 µM | slightly decreased larval activity | 132 ± 14.9% | 
7 | O=C1C2C3C=CC(C3)C2C(=O)N1OCCCN1CCN(c2cccc(C3=NCCS3)c2)CC1 (stereo not drawn) [FG‐8, 2‐(3‐(4‐(3‐(4,5‐dihydrothiazol‐2‐yl) phenyl) piperazin‐1‐yl) propoxy)‐3a,4,7,7a‐tetrahydro‐1H‐4,7‐methanoisoindole‐1,3(2H)‐dione] |  | 7.9 µM |  | slightly decreased larval activity | 184 ± 6.6% | full agonists
8 | O=C(NCCCN1CCN(c2ccccc2C2=NCCS2)CC1)c1ccccn1 [FG‐1, N‐(3‐(4‐(2‐(4,5‐dihydrothiazol‐2‐yl) phenyl) piperazin‐1‐yl) propyl) picolinamide] |  | 16.5 µM | 20 µM | decreased | 138 ± 11.5% | 
